The numbers were not newly measured in patent US20080255186A1, “Pyrazolo[3,4-B]Pyridine Compound, and Its Use as a Pde4 Inhibitor” (priority 2005, published 2008), which cites them from elsewhere.

Data set [1] has as its system atopic dermatitis patients. To be noted: 0.5% ointment, twice daily topical application; cited from earlier work.
Another data set has as its system COPD patients. To be noted: cited from earlier work.
Data set [2] deals with atopic dermatitis patients. The following applies: 0.15% cream vs vehicle and hydrocortisone 17-butyrate (0.1%) cream; cited from earlier work.
Data set [3] relates to humans with histories of allergic rhinitis. To be noted: orally 500 ug once daily for 9 days, compared to placebo; cited from earlier work.

The structures appear in SMILES notation.

For the compound `COc1ccc(C2CNC(=O)NC2)cc1O[C@H]1C[C@@H]2CC[C@H]1C2` [CP80,633], in data set [1], the “Effect on inflammatory parameters in atopic dermatitis patients” value is “reductions of inflammatory parameters”.
For the compound `COc1ccc([C@]2(C#N)CC[C@@H](C(=O)O)CC2)cc1OC1CCCC1` [cilomilast], in the data set with COPD patients (cilomilast: 15 mg orally twice daily), the “Effect on forced expiratory volume (FEV1) in COPD patients” value was “appears to improve forced expiratory volume”. Also, in the data set with COPD patients (human, in vivo), the “Antiinflammatory effects in COPD patients” value is recorded as “appears to have antiinflammatory effects in COPD patients”.
Regarding `Nc1nc2c([nH]1)c(=O)n(CC1CC1)c(=O)n2CC1CC1` [cipamfylline], the “Efficacy in treatment of atopic dermatitis patients” value in data set [2] is on record as “significantly more effective than vehicle, but significantly less effective than hydrocortisone 17-butyrate (0.1%) cream”.
Turning to `O=C(Nc1c(Cl)cncc1Cl)c1ccc(OC(F)F)c(OCC2CC2)c1` [roflumilast], in data set [3], the “Effect on rhinal airflow” value is “effective in improving rhinal airflow”.
